Measured values reported in article PMC3177041 (Journal of Cachexia, Sarcopenia and Muscle, 2011).

Tested on: male Wistar rats
Experiment: chronic mild stress model, 1% sucrose consumption
Format: in vivo, rat
Details: stressed and control groups, 10 mg/kg once daily

In the case of CN(C)CCCN1c2ccccc2CCc2ccccc21 [imipramine], the “body mass gain in the 5 weeks of treatment vs vehicle-treated controls” value is reported as “gained less body mass”.
